Tests used:
ΔF508 CFTR [1] = target: T1, ΔF508 CFTR (Homo sapiens, UniProt P13569, DEL508-508); assay: Dual corrector potentiator assay, corrector mode: FRT cell Ussing chamber short circuit current after 24 hours exposure to compound; format: cell-based; settings: for EC50: FRT cell monolayers, 24 hours exposure, EC50 defined as concentration giving >25% increase in whole cell Cl− conductance vs DMSO at 37° C.; for Corrector Efficacy: ΔIcompound(forskolin+IBMX+genistein)/ΔIvehicle(forskolin+IBMX+genistein)
T1 construct: expressed in transfected cells; host or cells: FRT epithelial cells (Fischer rat thyroid)
Procedure: (§1) FRT epithelial cell monolayers were grown on Snapwell filter inserts and optionally treated with a reference corrector N-(2-(5-chloro-2-methoxyphenylamino)-4′-methyl-4,5′-bithiazol-2′-yl)benzamide. The cells were exposed to a compound of the invention for 24 hours prior to the assay. The inserts were transferred to a Navicyte Ussing recording chamber and superfused with a HEPES buffered physiological saline (HB-PS) with composition (in mM): NaCl, 137; KCl, 4.0; CaCl2, 1.8; MgCl2, 1; HEPES, 10; Glucose, 10; pH adjusted to 7.4 with NaOH. The mucosal solution was 10CF-PS (composition in mM: Na-gluconate, 137; KCl, 4; CaCl2, 1.8; MgCl2, 1; HEPES, 10; Mannitol, 10; pH adjusted to 7.4 with N-methyl-D-glucamine) to create a transepithelial Cl ion gradient. A Physiologic Instruments VCC MC6 epithelial voltage clamp (Physiologic Instruments, Inc., San Diego, Calif.) was used to record the short circuit current (ISC).
(§2) Inserts were voltage clamped at 0 mV to measure the ISC. 10CF-PS solution (5 ml) was added to the mucosal (top) side of the Snapwell filter and HB-PS solution (5 mL) was added to the serosal (bottom) side of the Snapwell filter insert to permeabilize the serosal membrane. Solution additions and replacements in the Navicyte chambers were performed in a way to maintain a hydrostatic pressure gradient from mucosal to serosal sides of the filters by maintaining a solution level greater or equal in the mucosal chamber relative to the serosal chamber during solution changes. After acquisition of at least 10 minutes of baseline current, agonists (final concentrations: 10 μM forskolin, 100 μM 3-isobutyl-1-methylxanthine [IBMX] and 20 μM genistein) and antagonist (final concentration: 10 μM CFTRinh-172) were applied sequentially and cumulatively at 10 minute intervals for forskolin and IBMX, and at 15 minute intervals for genistein and CFTRinh-172, to both serosal and mucosal epithelial surfaces.
(§3) Agonists were prepared as 200×-1000× concentrated solutions in HP-PS and 10CF-PS. Agonist stocks prepared in HB-PS were added to the serosal surface, while agonist stocks prepared in 10CF-PS were added to the mucosal surface. In potentiator assays, appropriate volumes from 10 mM test compound solution in DMSO were added to the mucosal 10CF-PS solution. Agonists were diluted to the final working concentration in the Navicyte chamber by removal of chamber solution and addition of the concentrated stock solution. Order of solution removal was serosal then mucosal and for solution additions mucosal then serosal in order to maintain a hydrostatic pressure gradient from mucosal to serosal during solution changes. Transepithelial resistance was monitored every 20 s with 10 mV voltage steps.
(§4) EC50 values are defined as the concentration of compound that gives a >25% increase in whole cell Cl^− conductance (compared to DMSO at 37° C. as a vehicle) at 10 μM. The corrector efficacy was measured as a percentage change in agonist+compound vs. agonist: ΔIcompound(forskolin+IBMX+genistein)/ΔIvehicle(forskolin+IBMX+genistein). The potentiator efficacy was measured as a percentage change in forskolin activity: ΔI(forskolin+compound)/ΔI(forskolin+IBMX+genistein).

ΔF508 CFTR [2] = target: T1, ΔF508 CFTR; assay: Dual corrector potentiator assay, potentiator mode: FRT cell Ussing chamber short circuit current, compound added to mucosal solution; format: cell-based; settings: for Potentiator Efficacy: ΔI(forskolin+compound)/ΔI(forskolin+IBMX+genistein)
Procedure: as §1, §2, §3, §4

[3] = pretreatment of cells not given
[4] = ** cells treated with reference corrector N-(2-(5-chloro-2-methoxyphenylamino)-4′-methyl-4,5′-bithiazol-2′-yl)benzamide

T1 sequence (P13569 with tags, fused parts or gaps DEL508-508): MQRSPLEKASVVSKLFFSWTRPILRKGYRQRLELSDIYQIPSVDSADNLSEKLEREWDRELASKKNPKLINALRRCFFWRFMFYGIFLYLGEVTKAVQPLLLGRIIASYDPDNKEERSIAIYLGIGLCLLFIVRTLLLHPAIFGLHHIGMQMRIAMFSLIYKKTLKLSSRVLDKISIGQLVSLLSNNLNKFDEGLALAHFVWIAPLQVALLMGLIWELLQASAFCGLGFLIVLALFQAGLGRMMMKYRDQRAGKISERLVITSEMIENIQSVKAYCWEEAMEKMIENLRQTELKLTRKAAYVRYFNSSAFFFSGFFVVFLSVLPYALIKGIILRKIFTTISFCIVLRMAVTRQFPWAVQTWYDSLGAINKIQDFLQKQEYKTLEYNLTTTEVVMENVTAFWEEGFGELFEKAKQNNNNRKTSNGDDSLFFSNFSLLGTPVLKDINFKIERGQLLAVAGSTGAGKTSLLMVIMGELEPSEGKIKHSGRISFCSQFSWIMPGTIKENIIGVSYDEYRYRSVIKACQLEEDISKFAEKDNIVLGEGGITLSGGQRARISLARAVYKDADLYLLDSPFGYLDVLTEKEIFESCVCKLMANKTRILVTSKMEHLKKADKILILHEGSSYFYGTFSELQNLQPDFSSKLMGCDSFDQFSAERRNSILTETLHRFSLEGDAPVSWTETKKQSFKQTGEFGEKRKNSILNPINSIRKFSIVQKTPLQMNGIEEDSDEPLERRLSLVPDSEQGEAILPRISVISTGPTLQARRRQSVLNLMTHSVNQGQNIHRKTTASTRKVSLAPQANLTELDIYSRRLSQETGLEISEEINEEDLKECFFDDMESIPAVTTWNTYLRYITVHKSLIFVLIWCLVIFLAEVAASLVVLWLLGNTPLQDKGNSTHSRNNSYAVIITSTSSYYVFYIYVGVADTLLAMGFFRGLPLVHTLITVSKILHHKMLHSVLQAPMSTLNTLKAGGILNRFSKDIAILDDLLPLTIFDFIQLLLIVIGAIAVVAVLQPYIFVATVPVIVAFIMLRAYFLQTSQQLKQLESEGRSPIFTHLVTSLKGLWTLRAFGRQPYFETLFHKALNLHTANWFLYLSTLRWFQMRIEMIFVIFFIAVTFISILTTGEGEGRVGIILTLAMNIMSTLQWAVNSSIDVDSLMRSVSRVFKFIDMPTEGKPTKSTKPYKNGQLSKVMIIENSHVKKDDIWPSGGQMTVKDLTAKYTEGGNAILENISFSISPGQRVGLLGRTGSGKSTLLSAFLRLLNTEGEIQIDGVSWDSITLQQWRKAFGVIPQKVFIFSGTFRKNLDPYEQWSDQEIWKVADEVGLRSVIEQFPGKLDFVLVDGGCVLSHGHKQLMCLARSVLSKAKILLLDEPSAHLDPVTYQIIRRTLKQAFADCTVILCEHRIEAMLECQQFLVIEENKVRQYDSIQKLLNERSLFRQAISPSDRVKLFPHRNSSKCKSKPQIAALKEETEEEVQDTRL

EC50 (ΔF508 CFTR [1])	Corrector Efficacy (ΔF508 CFTR [1])	EC50 (ΔF508 CFTR [2]; [3])	Potentiator Efficacy (ΔF508 CFTR [2]; [3])	EC50 (ΔF508 CFTR [2]; [4])	Potentiator Efficacy (ΔF508 CFTR [2]; [4])	EC50 (ΔF508 CFTR [2]; * vehicle treated cells)	Potentiator Efficacy (ΔF508 CFTR [2]; * vehicle treated cells)	Compound
< 10 µM	+++ (+++=>3)							COc1nc(N[C@H]2CC[C@@H](C)CC2)ncc1-c1ccc(OC(C)C)nc1 [Example 118, 5-(6-isopropoxypyridin-3-yl)-4-methoxy-N-((1s,4s)-4-methylcyclohexyl)pyrimidin-2-amine]
> 20 µM	+++ (+++=>3)							COc1nc(N[C@H]2CC[C@@H](C)CC2)ncc1-c1ccc(OCC#N)cc1 [Example 125, 2-(4-(4-methoxy-2-((1s,4s)-4-methylcyclohexylamino)pyrimidin-5-yl)phenoxy)acetonitrile]
		< 3 µM	++ (++=0.3-0.6)					COc1nc(N[C@H]2CC[C@@H](C)CC2)ncc1-c1ccc(OC(F)F)cc1 [Example 104, 5-(4-(difluoromethoxy)phenyl)-4-methoxy-N-((1s,4s)-4-methylcyclohexyl)pyrimidin-2-amine]
> 20 µM	+++ (+++=>3)							C[C@H]1CC[C@@H](Nc2ncc(-c3ccc(OCC#N)cc3)c(OCC3CC3)n2)CC1 [Example 133, 2-(4-(4-(cyclopropylmethoxy)-2-((1s,4s)-4-methylcyclohexylamino)pyrimidin-5-yl)phenoxy)acetonitrile]
> 10 µM	+++ (+++=>3)							C[C@H]1CC[C@@H](Nc2ncc(-c3ccc(OCC#N)cc3)c(OC3CCOC3)n2)CC1 (some centres unmarked) [Example 150, 2-(4-(2-((1s,4s)-4-methylcyclohexylamino)-4-(tetrahydrofuran-3-yloxy)pyrimidin-5-yl)phenoxy)acetonitrile]
		< 3 µM	++ (++=0.3-0.6)					COc1nc(N[C@H]2CC[C@@H](C)CC2)ncc1-c1ccc(OC(C)C)cc1 [Example 102, 5-(4-isopropoxyphenyl)-4-methoxy-N-((1s,4s)-4-methylcyclohexyl)pyrimidin-2-amine]
< 10 µM	+++ (+++=>3)							COc1nc(N[C@H]2CC[C@@H](C)CC2)ncc1-c1ccc(N2CCCCC2)nc1 [Example 119, 4-methoxy-N-((1s,4s)-4-methylcyclohexyl)-5-(6-(piperidin-1-yl)pyridin-3-yl)pyrimidin-2-amine]
< 10 µM	+++ (+++=>3)			< 10 µM	++** (++=0.3-0.6)			COc1nc(N[C@H]2CC[C@@H](C)CC2)ncc1-c1ccc(OC(C)C)cc1 [Example 7, 5-(4-Isopropoxyphenyl)-4-methoxy-N-((1S,4S)-4-methylcyclohexyl)pyrimidin-2-amine]
< 10 µM	+++ (+++=>3)			< 3 µM	+++** (+++=>0.6)			C[C@H]1CC[C@@H](Nc2ncc(-c3ccc(OC(F)F)cc3)cn2)CC1 [Example 19, 5-(4-(difluoromethoxy)phenyl)-N-((1s,4s)-4-methylcyclohexyl)pyrimidin-2-amine]
		< 3 µM	++ (++=0.3-0.6)					COc1nc(N[C@H]2CC[C@@H](C)CC2)ncc1-c1ccnc(C#N)c1 [Example 143, 4-(4-methoxy-2-((1s,4s)-4-methylcyclohexylamino)pyrimidin-5-yl)picolinonitrile]
< 10 µM	+++ (+++=>3)			< 3 µM	++** (++=0.3-0.6)			COc1nc(N[C@H]2CC[C@@H](C)CC2)ncc1-c1ccc(OC(F)F)cc1 [Example 59, 5-(4-(difluoromethoxy)phenyl)-4-methoxy-N-((1s,4s)-4-methylcyclohexyl)pyrimidin-2-amine]
< 10 µM	+++ (+++=>3)			< 3 µM	+++** (+++=>0.6)			CC(C)Oc1ccc(-c2cnc(N[C@H]3CC[C@@H](C)CC3)nc2)cc1 [Example 23, 5-(4-isopropoxyphenyl)-N-((1s,4s)-4-methylcyclohexyl)pyrimidin-2-amine]
		< 3 µM	++ (++=0.3-0.6)					COc1nc(N[C@H]2CC[C@@H](C)CC2)ncc1-c1ccc(OC(F)(F)F)cc1 [Example 103, 4-methoxy-N-((1s,4s)-4-methylcyclohexyl)-5-(4-(trifluoromethoxy)phenyl)pyrimidin-2-amine]
< 10 µM	+++ (+++=>3)			< 3 µM	++** (++=0.3-0.6)			COc1ccc(-c2cnc(N[C@H]3CC[C@@H](C)CC3)nc2)cc1 [Example 27, 5-(4-methoxyphenyl)-N-((1s,4s)-4-methylcyclohexyl)pyrimidin-2-amine]
< 10 µM	+++ (+++=>3)			< 3 µM	+++** (+++=>0.6)			COc1nc(N[C@H]2CC[C@@H](C)CC2)ncc1-c1ccc(OC(F)(F)F)cc1 [Example 58, 4-methoxy-N-((1s,4s)-4-methylcyclohexyl)-5-(4-(trifluoromethoxy)phenyl)pyrimidin-2-amine]
~10 µM	+++ (+++=>3)							C[C@H]1CC[C@@H](Nc2ncc(-c3ccc4c(c3)OCCO4)c(O[C@@H]3CCOC3)n2)CC1 [Example 201, 5-(2,3-dihydrobenzo[b][1,4]dioxin-6-yl)-N-((1s,4S)-4-methylcyclohexyl)-4-((R)-tetrahydrofuran-3-yloxy)pyrimidin-2-amine]
< 10 µM	+++ (+++=>3)			< 3 µM	+++** (+++=>0.6)	< 3 µM	+++* (+++=>0.6)	C[C@H]1CC[C@@H](Nc2ncc(-c3ccc(OC(F)(F)F)cc3)cn2)CC1 [Example 4, N-((1S,4S)-4-Methylcyclohexyl)-5-(4-(trifluoromethoxy)phenyl)pyrimidin-2-amine]
